Measured values taken from patent US20060177374A1, “Treatment of cancer with active vitamin D compounds in combination with radiotherapeutic agents and treatments” (Novacea, Inc., priority 2003, published 2006).

Legend:
[1] = in vivo; cited from earlier work
[2] = Solubility study of calcitriol in each formulation (light microscope); type: physicochemical; conditions: heated to 50° C., cooled to room temperature, highest concentration tested
Experimental: To further assess the formulations of calcitriol, a solubility study was conducted to evaluate the amount of calcitriol soluble in each formulation. Calcitriol concentrations from 0.1 to 0.6 μg calcitriol/mg formulation were prepared by heating the formulations to 50° C. followed by addition of the appropriate mass of calcitriol. The formulations were then allowed to cool to room temperature and the presence of undissolved calcitriol was determined by a light microscope with and without polarizing light. For each formulation, calcitriol was soluble at the highest concentration tested, 0.6 μg calcitriol/mg formulation.

Structure (SMILES)	Hypercalcemic effect compared to calcitriol [1]	Calcitriol soluble in formulation [2]
C=C1/C(=C\C=C2/CCC[C@]3(C)C([C@H](C)CC#CC(C)(C)O)=CC[C@@H]23)C[C@@H](O)C[C@@H]1O [Ro23-7553]	reduced hypercalcemic effect	
C=C1/C(=C\C=C2/CCC[C@]3(C)[C@@H]([C@H](C)CCCC(C)(C)O)CC[C@@H]23)C[C@@H](O)C[C@@H]1O [calcitriol, 1α,25-dihydroxyvitamin D3]		≥ 0.6 μg calcitriol/mg formulation
